Columns and labels:
Assay in all cases: relative viability (nuclei count vs DMSO), 5 days (fraction); higher = more cells survive
[1] = compound: CC1=CC(=NN1)NC2=CC(=NC(=N2)/C=C/C3=CC=CC=C3)N4CCN(CC4)C + CS(=O)(=O)N1CCN(Cc2cc3nc(-c4cccc5[nH]ncc45)nc(N4CCOCC4)c3s2)CC1 [Pictilisib] (partner 1 µM)
Outline: (§1)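 Lung cancer cell lines were pin-tool dosed in 1536-well plates on the day after seeding, with either a lone drug or a fixed anchor-drug dose plus five library-drug doses (not always all listed) in √10 steps. Nuclei were counted on 4× images after 5 days. Relative viability is the ratio of treated-well to vehicle-well nuclei counts, with each value a median of duplicate plates.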

[2] = compound: CC1=CC(=NN1)NC2=CC(=NC(=N2)/C=C/C3=CC=CC=C3)N4CCN(CC4)C + Cc1nc(NC(=O)N2CCC[C@H]2C(N)=O)sc1-c1ccnc(C(C)(C)C(F)(F)F)c1 [Alpelisib] (partner 2 µM)
Outline: as §1

[3] = compound: COC1=CC(c2cc3ccccc3[nH]2)=N/C1=C\c1[nH]c(C)cc1C [Obatoclax] + CCNC(=O)c1noc(-c2cc(C(C)C)c(O)cc2O)c1-c1ccc(CN2CCOCC2)cc1 [Luminespib] (partner 0.01 µM)
Outline: as §1

[4] = compound: COC1=CC(c2cc3ccccc3[nH]2)=N/C1=C\c1[nH]c(C)cc1C [Obatoclax] + CS(=O)(=O)N1CCN(Cc2cc3nc(-c4cccc5[nH]ncc45)nc(N4CCOCC4)c3s2)CC1 [Pictilisib] (partner 1 µM)
Outline: as §1

## NCI-H650
[1]; first compound 0.08 µM
  relative viability: 0.763
[1]; first compound 0.253 µM
  relative viability: 0.92
[1]; first compound 0.8 µM
  relative viability: 0.93
[1]; first compound 2.53 µM
  relative viability: 0.719
[1]; first compound 8 µM
  relative viability: 0.183
[2]; first compound 0.08 µM
  relative viability: 1.12
[2]; first compound 0.253 µM
  relative viability: 1.19
[2]; first compound 0.8 µM
  relative viability: 1.03
[2]; first compound 2.53 µM
  relative viability: 0.811
[2]; first compound 8 µM
  relative viability: 0.171
[3]; first compound 0.01 µM
  relative viability: 0.712
[3]; first compound 0.03162 µM
  relative viability: 0.802
[3]; first compound 0.3162 µM
  relative viability: 0.44
[3]; first compound 1 µM
  relative viability: 0.305
[4]; first compound 0.01 µM
  relative viability: 0.812
[4]; first compound 0.03162 µM
  relative viability: 0.722
[4]; first compound 0.1 µM
  relative viability: 0.597
[4]; first compound 0.3162 µM
  relative viability: 0.462
[4]; first compound 1 µM
  relative viability: 0.333

From the supplement of paper PMC10307832
